The conditions of data set [1]: cited from earlier work; for melting temperature of a triple helix: Sakakibara et al. 1973.
The test system of data set [2] is peripapillary sclera in mouse eyes. The experiment in a line: AFM measurement of Young's Modulus in mouse peripapillary sclera explants after MMP treatment, with or without CMP. The settings on record: MMP1 alone, 50 μg/ml for 30 minutes, compared with untreated baseline. From the text:
Therefore, to examine the possible therapeutic effects of CMPs of the invention in treating myopia, studies were designed to test the effects of certain CMPs conjugates in a model of the in vivo setting—an ex vivo study of the collagen matrix in the peripapillary sclera in mouse eyes. To conduct these studies, mouse eyes were explanted and thin sectioned, and sections of the peripapillary sclera (the scleral area adjacent to the optic nerve head) were examined by atomic force microscopy (AFM).
To examine the impact of matrix metalloproteinase (MMP) treatment, with or without subsequent CMP treatment, on the stiffness of the mouse peripapillary scleral explants, samples were treated with MMP (50 μg/ml for 30 minutes), followed by either a PBS washout or by treatment with a CMP-containing formulation of the invention for 60 minutes.
To increase the statistical significance of these studies, AFM was used to make Young's Modulus measurements across a large number of points in multiple individual locations in a given sample of peripapillary sclera.

For data set [3], the system named is glial lamina at the optic nerve head. The experiment in a line: AFM measurement of Young's Modulus and morphology in glial lamina of mouse eye explants after MMP1 treatment, with or without CMP. The settings on record: MMP1 alone, 5 μg/ml for 30 minutes, compared with untreated baseline. From the text:
To conduct these studies, mouse eyes were explanted and thin sectioned as described in Example 2 above, and sections of the glial lamina and the peripapillary sclera were examined by atomic force microscopy (AFM).
To increase the statistical significance of these studies, AFM was used to make Young's Modulus measurements across a large number of points in multiple individual locations in a given sample of glial lamina, as was done in Example 2 for peripapillary sclera.

The test system of another data set is glial lamina. The experiment in a line: Fluorescence microscopy of disrupted (RCHP) and intact (Col1) collagen in explants, glial lamina. On the set-up: species or system mouse. The settings on record: MMP1 alone 30 minutes. The protocol: (§1) To examine the distribution of disrupted and intact collagen in such explants, samples prepared as above were treated with DAPI (to localize cell nuclei), a fluorescently labeled antibody against type I collagen (“Col1”), and a Cy3-labeled collagen hybridizing peptide (“RCHP”) which binds only to areas of disrupted collagen.

A further data set deals with peripapillary sclera. Nature of the data set: Fluorescence microscopy of disrupted (RCHP) and intact (Col1) collagen in explants, peripapillary sclera. On the set-up: species or system mouse. The conditions noted are these: MMP1 alone 30 minutes. The procedure:
as §1

A further data set addresses Human type I collagen (Homo sapiens, UniProt P02452+P08123). The experiment in a line: AFM of type I collagen plated on substrates, MMP1 with or without CMP13. The class given is biochemical. The settings on record: collagen 10 μg/ml; MMP1 alone 60 ng/ml for 30 minutes. From the text:
In untreated (baseline) samples, extensive and multilamellar networks of collagen fibers, fibrils and bundles could be readily observed (FIGS. 15A, 15B).

We go through three substances from patent US20240016900A1, “COLLAGEN PEPTIDE-BASED MEDICAMENT COMPOSITIONS AND USES THEREOF” (SUSTAIN HOLDINGS, LLC, priority 2022, published 2024).

Human type I collagen, sequence (P02452 162-1218 limits assumed): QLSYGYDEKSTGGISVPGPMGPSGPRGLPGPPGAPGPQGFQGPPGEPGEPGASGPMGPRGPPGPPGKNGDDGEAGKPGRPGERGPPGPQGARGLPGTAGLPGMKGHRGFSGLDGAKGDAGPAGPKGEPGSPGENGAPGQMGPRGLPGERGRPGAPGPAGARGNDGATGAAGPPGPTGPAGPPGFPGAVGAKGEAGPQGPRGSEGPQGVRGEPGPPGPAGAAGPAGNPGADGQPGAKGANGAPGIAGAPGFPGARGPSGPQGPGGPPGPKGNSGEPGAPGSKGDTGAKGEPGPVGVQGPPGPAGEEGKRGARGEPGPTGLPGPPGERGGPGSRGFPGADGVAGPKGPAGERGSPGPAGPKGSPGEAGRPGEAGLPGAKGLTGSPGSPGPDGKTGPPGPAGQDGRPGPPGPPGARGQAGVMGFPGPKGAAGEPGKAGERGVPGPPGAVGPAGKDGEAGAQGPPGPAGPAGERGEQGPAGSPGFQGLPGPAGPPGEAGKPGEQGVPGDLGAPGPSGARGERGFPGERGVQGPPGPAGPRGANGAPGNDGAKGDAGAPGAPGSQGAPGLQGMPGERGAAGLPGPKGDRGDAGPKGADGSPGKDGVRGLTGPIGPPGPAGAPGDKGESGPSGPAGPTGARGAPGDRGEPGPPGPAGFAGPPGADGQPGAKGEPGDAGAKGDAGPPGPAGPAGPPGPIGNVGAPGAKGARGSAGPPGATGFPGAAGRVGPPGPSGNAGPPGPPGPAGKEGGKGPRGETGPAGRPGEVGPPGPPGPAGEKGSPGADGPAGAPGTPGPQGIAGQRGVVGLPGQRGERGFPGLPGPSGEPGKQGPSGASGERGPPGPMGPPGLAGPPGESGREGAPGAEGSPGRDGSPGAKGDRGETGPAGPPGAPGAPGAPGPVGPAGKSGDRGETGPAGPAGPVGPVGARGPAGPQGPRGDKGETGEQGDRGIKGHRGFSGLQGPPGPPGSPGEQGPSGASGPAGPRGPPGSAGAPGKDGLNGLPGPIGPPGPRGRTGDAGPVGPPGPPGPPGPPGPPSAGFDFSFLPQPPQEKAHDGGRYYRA
Human type I collagen, sequence (P08123 80-1119 limits assumed): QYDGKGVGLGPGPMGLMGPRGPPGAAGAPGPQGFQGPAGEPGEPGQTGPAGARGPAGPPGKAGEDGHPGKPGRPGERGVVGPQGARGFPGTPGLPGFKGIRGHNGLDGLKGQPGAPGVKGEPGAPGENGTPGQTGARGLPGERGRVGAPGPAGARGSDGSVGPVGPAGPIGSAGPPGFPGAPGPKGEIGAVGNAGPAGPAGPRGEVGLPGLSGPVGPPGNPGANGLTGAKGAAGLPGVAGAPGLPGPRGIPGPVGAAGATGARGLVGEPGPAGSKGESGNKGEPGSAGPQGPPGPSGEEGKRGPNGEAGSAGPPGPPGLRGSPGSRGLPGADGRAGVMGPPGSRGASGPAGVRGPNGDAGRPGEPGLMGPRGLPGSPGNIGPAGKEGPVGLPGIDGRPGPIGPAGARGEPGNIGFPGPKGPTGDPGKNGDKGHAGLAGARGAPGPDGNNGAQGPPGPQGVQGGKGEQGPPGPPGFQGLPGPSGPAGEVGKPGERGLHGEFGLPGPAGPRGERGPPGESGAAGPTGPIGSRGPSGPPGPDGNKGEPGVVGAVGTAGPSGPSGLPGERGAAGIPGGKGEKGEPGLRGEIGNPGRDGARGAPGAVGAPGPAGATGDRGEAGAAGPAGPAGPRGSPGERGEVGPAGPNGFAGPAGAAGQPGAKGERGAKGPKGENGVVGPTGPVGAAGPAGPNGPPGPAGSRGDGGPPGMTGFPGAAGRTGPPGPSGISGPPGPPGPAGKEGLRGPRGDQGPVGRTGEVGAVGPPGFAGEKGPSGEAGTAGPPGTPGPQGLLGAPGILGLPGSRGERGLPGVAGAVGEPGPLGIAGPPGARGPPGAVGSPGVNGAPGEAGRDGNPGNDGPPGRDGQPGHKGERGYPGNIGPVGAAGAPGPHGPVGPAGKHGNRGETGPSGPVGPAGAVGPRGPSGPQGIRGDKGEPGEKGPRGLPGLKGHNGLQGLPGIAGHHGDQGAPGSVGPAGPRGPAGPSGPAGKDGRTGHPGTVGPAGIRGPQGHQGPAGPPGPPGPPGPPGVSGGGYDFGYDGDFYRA

Consider (ProHypGly)10, for which the “melting temperature of a triple helix” value in data set [1] was 58 °C. Further, in data set [1] (relative to (ProProGly)10, Chopra and Ananthanarayanan 1982), the “rate at which chains fold into a triple helix” value is on record as “substantially greater”.

With (ProProGly)10, the “melting temperature of a triple helix” value in data set [1] was 24 °C.

For “MMP1: matrix metalloproteinase 1, used to disrupt collagen in explants and on substrates”, the “Young's Modulus (scleral stiffness)” value in data set [2] is reported as “significant decrease in Young's Modulus”; in data set [2] (listed as MMP), “significantly reduced the scleral stiffness”. Moreover, the entries for the “Young's Modulus (glial lamina stiffness)” value in data set [3] and in data set [3] (listed as MMP) were “significant decrease in Young's Modulus” and “adversely affecting the stiffness of the glial lamina”, respectively. Also, the “disrupted collagen (RCHP)” value with glial lamina and with peripapillary sclera was “large amount of disrupted collagen” each time. The “intact collagen (Col1)” value in the data set on glial lamina was “nearly devoid of intact collagen”. Besides, the “collagen fiber/fibril networks on substrate (AFM)” value with Human type I collagen was “substantial amount of disorganized collagen and little remaining fiber/fibril formation”.
